# Source: publication PMC3227451, “Structure-based development of novel sirtuin inhibitors” (Aging (Albany NY), 2011)
# Experiments:
# Format in all cases: biochemical
# Sirt5 = target: T1, Sirt5 (Homo sapiens, UniProt Q9NXA8); assay: Fluor-de-Lys peptide deacetylation assay, Sirt5
# T1 construct: Sirt5 residues 34-302; His-tag with linker comprising a TEV protease cleavage site (N); made in house
# T1 sequence (Q9NXA8 34-302): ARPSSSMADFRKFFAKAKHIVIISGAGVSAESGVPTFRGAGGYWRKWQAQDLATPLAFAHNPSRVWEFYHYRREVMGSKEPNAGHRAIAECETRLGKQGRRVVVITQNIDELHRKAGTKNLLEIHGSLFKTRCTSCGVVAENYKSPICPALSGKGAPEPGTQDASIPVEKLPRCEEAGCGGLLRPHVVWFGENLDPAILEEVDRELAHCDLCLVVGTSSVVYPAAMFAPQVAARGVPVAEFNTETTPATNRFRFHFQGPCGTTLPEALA
# In short: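 E. coli-expressed human Sirtuins with 0.5 mM NAD+ and 0.1 mM Fluor-de-Lys peptide: FdL-2 (QPK(acetyl-K)) for Sirt3, FdL-1 (RHK(acetyl-K)) for Sirt5. Compounds at 100 μM final; 30 min at 37 °C, then trypsin developer for 45 min at room temperature.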
# Sirt1 = target: T2, Sirt1 (Homo sapiens, UniProt Q96EB6); assay: in vitro activity of Sirt1; conditions: concentration of 100 μM
# T2 sequence (Q96EB6 1-747): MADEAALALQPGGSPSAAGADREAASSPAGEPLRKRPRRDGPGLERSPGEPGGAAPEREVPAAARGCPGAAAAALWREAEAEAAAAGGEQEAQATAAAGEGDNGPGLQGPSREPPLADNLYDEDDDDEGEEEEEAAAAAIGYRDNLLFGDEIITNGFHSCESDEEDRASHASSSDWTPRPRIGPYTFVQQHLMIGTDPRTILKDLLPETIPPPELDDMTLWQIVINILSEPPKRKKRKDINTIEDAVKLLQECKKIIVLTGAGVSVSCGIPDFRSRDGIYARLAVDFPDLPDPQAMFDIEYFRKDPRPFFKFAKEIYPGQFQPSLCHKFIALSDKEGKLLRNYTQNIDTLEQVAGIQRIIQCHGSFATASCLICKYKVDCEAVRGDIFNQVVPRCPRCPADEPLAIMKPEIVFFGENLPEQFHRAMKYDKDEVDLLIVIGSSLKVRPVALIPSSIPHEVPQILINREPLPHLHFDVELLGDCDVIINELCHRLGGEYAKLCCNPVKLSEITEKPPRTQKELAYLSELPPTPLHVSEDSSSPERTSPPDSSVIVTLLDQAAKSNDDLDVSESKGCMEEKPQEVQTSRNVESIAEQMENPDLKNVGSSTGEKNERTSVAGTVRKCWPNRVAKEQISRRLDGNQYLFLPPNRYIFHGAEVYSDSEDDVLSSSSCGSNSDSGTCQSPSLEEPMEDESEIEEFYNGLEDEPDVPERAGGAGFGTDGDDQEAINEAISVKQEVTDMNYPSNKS
# Sirt2 = target: T3, Sirt2 (Homo sapiens, UniProt Q8IXJ6); assay: Fluor-de-Lys peptide deacetylation assay, Sirt2
# T3 sequence (Q8IXJ6 34-356): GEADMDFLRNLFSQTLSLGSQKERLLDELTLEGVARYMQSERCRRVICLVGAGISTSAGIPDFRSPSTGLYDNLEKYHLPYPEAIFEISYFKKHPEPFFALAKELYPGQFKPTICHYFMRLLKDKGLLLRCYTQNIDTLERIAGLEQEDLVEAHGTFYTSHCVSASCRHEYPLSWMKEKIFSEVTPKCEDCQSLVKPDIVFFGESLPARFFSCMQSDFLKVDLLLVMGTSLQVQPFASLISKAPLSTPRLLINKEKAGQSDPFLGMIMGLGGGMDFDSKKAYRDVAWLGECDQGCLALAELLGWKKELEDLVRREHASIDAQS
# In short: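 Full-length human Sirt2 (E. coli-expressed, purified, His-tag removed) incubated 30 min at 37 °C with 0.1 mM FdL-2 peptide (QPK(acetyl-K)), 0.5 mM NAD+ and compound at 100 μM final in kit buffer. Values corrected with compound-only (no Sirtuin) controls; screen in duplicate, dose-response in triplicate.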
structure (smiles),measurement,setting,value
"CC12Cc3cnc(-c4ccccc4)nc3CC1CCC1C2CCC2(C)C1CCC2(C)O (centres unmarked) [CSC13, 1,11a,13a-trimethyl-8-phenyl-2,3,3a,3b,4,5,5a,6,11,11a,11b,12,13,13a-tetradecahydro-1H-cyclopenta[5,6]naphtho[1,2-g]quinazolin-1-ol]",Effect on the activity of Sirt5,Sirt5,--- (key: inhibition: significant inhibitory effects (>25% loss of activity); ---: no such effect)
same,effect on the in vitro activity of Sirt1,Sirt1,only a weak inhibitory effect
same,Effect on the activity of Sirt2,Sirt2,inhibition (key: inhibition: significant inhibitory effects (>25% loss of activity); ---: no such effect)
same,IC50,Sirt2,9.7 ± 1.5 µM
same,inhibition at 100 µM,Sirt2; read-out: Sirt2 inhibition in the screen,~80%
